Assay results: patent US8530388B2, “Cyclopentadione derived herbicides” (Syngenta Limited, priority 2009, dated 2013)

Legend:
Type in all cases: in vivo
[1] = system: Echinochloa crus-galli (ECHCG); assay: Pre-emergence herbicidal activity, glasshouse pot test; details: 312 h, Rate 250 g/ha, sprayed one day after sowing, evaluated after 13 days, 100=total damage to plant, 0=no damage to plant
Protocol: (§1) Seeds of a variety of test species were sown in standard soil in pots. After cultivation for one day (pre-emergence) or after 8 days cultivation (post-emergence) under controlled conditions in a glasshouse (at 24/16° C., day/night; 14 hours light; 65% humidity), the plants were sprayed with an aqueous spray solution derived from the formulation of the technical active ingredient in acetone/water (50:50) solution containing 0.5% Tween 20 (polyoxyethelyene sorbitan monolaurate, CAS RN 9005-64-5). The test plants were then grown in a glasshouse under controlled conditions in a glasshouse (at 24/16° C., day/night; 14 hours light; 65% humidity) and watered twice daily. After 13 days for pre and post-emergence, the test was evaluated (100=total damage to plant; 0=no damage to plant). Test plants: Setaria faberi (SETFA), Lolium perenne (LOLPE), Alopecurus myosuroides (ALOMY), Echinochloa crus-galli (ECHCG), and Avena fatua (AVEFA) Pre-Emergence Activity

Avena fatua (AVEFA) [2] = assay: as above; details: 312 h, Rate 250 g/ha, sprayed one day after sowing, evaluated after 13 days, 100=total damage to plant, 0=no damage to plant
Protocol: as §1

Lolium perenne (LOLPE) [3] = assay: as above; details: 312 h, Rate 250 g/ha, sprayed one day after sowing, evaluated after 13 days, 100=total damage to plant, 0=no damage to plant
Protocol: as §1

[4] = system: Alopecurus myosuroides (ALOMY); assay: as above; details: 312 h, Rate 250 g/ha, sprayed one day after sowing, evaluated after 13 days, 100=total damage to plant, 0=no damage to plant
Protocol: as §1

[5] = system: Echinochloa crus-galli (ECHCG); assay: Post-emergence herbicidal activity, glasshouse pot test; details: 312 h, rate 250 g/ha, evaluated after 13 days, read-out: Post-emergence activity, ECHCG (100=total damage to plant; 0=no damage to plant)
Protocol: as §1, with “plant).” for “plant). Test plants: Setaria faberi (SETFA), Lolium perenne (LOLPE), Alopecurus myosuroides (ALOMY), Echinochloa crus-galli (ECHCG), and Avena fatua (AVEFA) Pre-Emergence Activity”
(§2) Test plants: Setaria faberi (SETFA), Lolium perenne (LOLPE), Alopecurus myosuroides (ALOMY), Echinochloa crus-galli (ECHCG), and Avena fatua (AVEFA)

Avena fatua (AVEFA) [6] = assay: as above; details: 312 h, rate 250 g/ha, evaluated after 13 days, read-out: Post-emergence activity, AVEFA (100=total damage to plant; 0=no damage to plant)
Protocol: as §1, with “plant).” for “plant). Test plants: Setaria faberi (SETFA), Lolium perenne (LOLPE), Alopecurus myosuroides (ALOMY), Echinochloa crus-galli (ECHCG), and Avena fatua (AVEFA) Pre-Emergence Activity”
as §2

Lolium perenne (LOLPE) [7] = assay: as above; details: 312 h, rate 250 g/ha, evaluated after 13 days, read-out: Post-emergence activity, LOLPE (100=total damage to plant; 0=no damage to plant)
Protocol: as §1, with “plant).” for “plant). Test plants: Setaria faberi (SETFA), Lolium perenne (LOLPE), Alopecurus myosuroides (ALOMY), Echinochloa crus-galli (ECHCG), and Avena fatua (AVEFA) Pre-Emergence Activity”
as §2

[8] = system: Alopecurus myosuroides (ALOMY); assay: as above; details: 312 h, rate 250 g/ha, evaluated after 13 days, read-out: Post-emergence activity, ALOMY (100=total damage to plant; 0=no damage to plant)
Protocol: as §1, with “plant).” for “plant). Test plants: Setaria faberi (SETFA), Lolium perenne (LOLPE), Alopecurus myosuroides (ALOMY), Echinochloa crus-galli (ECHCG), and Avena fatua (AVEFA) Pre-Emergence Activity”
as §2

| Compound | pest or weed control at 250 g/ha [1] [%] | pest or weed control at 250 g/ha (Avena fatua (AVEFA) [2]) [%] | pest or weed control at 250 g/ha (Lolium perenne (LOLPE) [3]) [%] | pest or weed control at 250 g/ha [4] [%] | pest or weed control at 250 g/ha [5] [%] | pest or weed control at 250 g/ha (Avena fatua (AVEFA) [6]) [%] | pest or weed control at 250 g/ha (Lolium perenne (LOLPE) [7]) [%] | pest or weed control at 250 g/ha [8] [%] |
| --- | --- | --- | --- | --- | --- | --- | --- | --- |
| CCc1ccc(-c2ccc(Cl)c(Cl)c2F)cc1C1=C(O)CCC1=O [Compound T-13] | 0 | 0 | 0 | 0 | 60 | 0 | 40 | 10 |
| CCc1ccc(-c2ccc(Cl)c(C(F)(F)F)c2F)cc1C1=C(O)CCC1=O [Compound T-19] | 10 | 0 | 20 | 0 | 70 | 20 | 60 | 60 |
| CCc1ccc(-c2ccc(Cl)c(Cl)c2Cl)cc1C1=C(O)CCC1=O [Compound T-20] | 30 | 0 | 10 | 0 | 70 | 10 | 20 | 20 |
| O=C1CCC(O)=C1c1cc(-c2ccc(Cl)cc2Cl)ccc1C1CC1 [Compound T-24, 2-(2′,4′-dichloro-4-cyclopropylbiphenyl-3-yl)-cyclopentane-1,3-dione] | 80 | 0 | 50 | 0 | 100 | 10 | 50 | 30 |
| CCc1ccc(-c2ccc(Cl)c(F)c2Cl)cc1C1=C(O)CCC1=O [Compound T-11] | 50 | 10 | 30 | 20 | 90 | 30 | 50 | 60 |
| CCc1ccc(-c2cc(F)c(Cl)c(F)c2)cc1C1=C(O)CCC1=O [Compound T-21] | 40 | 10 | 100 | 40 | 40 | 20 | 30 | 30 |
| CCc1ccc(-c2ccc(Cl)c(C)c2)cc1C1=C(O)CCC1=O [Compound T-15] | 0 | 0 | 0 | 0 | 30 | 0 | 30 | 10 |
| CCc1ccc(-c2ccc(F)cc2)cc1C1=C(O)CCC1=O [Compound T-17] | 80 | 0 | 60 | 40 | 70 | 40 | 50 | 50 |
| CCc1ccc(-c2ccc(Cl)c(OC)c2)cc1C1=C(O)CCC1=O [Compound T-6] | 60 | 0 | 30 | 0 | 90 | 10 | 60 | 50 |
| CCc1ccc(-c2ccc(C(F)(F)F)cc2)cc1C1=C(O)CCC1=O [Compound T-18] | 50 | 30 | 30 | 50 | 100 | 90 | 70 | 80 |
| CCc1ccc(-c2cc(Cl)c(F)cc2F)cc1C1=C(O)CCC1=O [Compound T-22] | 30 | 0 | 10 | 0 | 60 | 10 | 10 | 30 |
| CCc1ccc(-c2ccc(Cl)cc2)cc1C1=C(O)C2CSCC2C1=O (stereo not shown) [Compound T-2, 5-(4′-Chloro-4-ethylbiphenyl-3-yl)-tetrahydrocyclopenta[c]thiophene-4,6-dione] | 70 | 0 | 0 | 0 | 100 | 80 | 0 | 20 |
| CCc1ccc(-c2ccc(Cl)c(C(F)(F)F)c2)cc1C1=C(O)CCC1=O [Compound T-8] | 60 | 0 | 60 | 30 | 100 | 30 | 60 | 50 |
| CCc1ccc(-c2ccc(Cl)cc2)cc1C1=C(O)CCC1=O [Compound T-1, 2-(4′-chloro-4-ethylbiphen-3-yl)-1,3-cyclopentanedione] | 100 | 70 |  | 90 | 100 | 90 |  | 80 |
| CCc1ccc(-c2ccc(Cl)c(Cl)c2)cc1C1=C(O)CCC1=O [Compound T-5] | 20 | 0 | 20 | 20 | 70 | 20 | 50 | 30 |
| CCc1ccc(-c2c(F)cc(Cl)cc2F)cc1C1=C(O)CCC1=O [Compound T-10] | 0 | 0 | 0 | 0 | 90 | 50 | 40 | 30 |
| CCc1ccc(-c2ccc(Cl)cc2F)cc1C1=C(O)CCC1=O [Compound T-3, 2-(4′-chloro-4-ethyl-2′-fluorobiphenyl-3-yl)cyclopentane-1,3-dione] | 100 | 60 | 90 | 30 | 100 | 90 | 40 | 30 |
| CCc1ccc(-c2ccc(Cl)c(F)c2F)cc1C1=C(O)CCC1=O [Compound T-12] | 50 | 30 | 50 | 40 | 90 | 50 | 50 | 50 |
